One assay has as its target JAK3 (Homo sapiens (Human), UniProt P52333). Description: Biochemical JAK kinase assay (LanthaScreen), JAK3. The settings on record: converted from pIC50 with Cheng-Prusoff equation. On the procedure: Assay 1: Biochemical JAK Kinase Assays
A panel of four LanthaScreen JAK biochemical assays (JAK1, 2, 3 and Tyk2) were carried in a common kinase reaction buffer (50 mM HEPES, pH 7.5, 0.01% Brij-35, 10 mM MgCl2, and 1 mM EGTA). Recombinant GST-tagged JAK enzymes and a GFP-tagged STAT1 peptide substrate were obtained from Life Technologies.
Serially diluted compounds were pre-incubated with each of the four JAK enzymes and the substrate in white 384-well microplates (Corning) at ambient temperature for 1 h. ATP was subsequently added to initiate the kinase reactions in 10 μL total volume, with 1% DMSO. […] The plates were allowed to incubate at ambient temperature for 1 h before being read on the EnVision reader (Perkin Elmer).
For dose-response analysis, percent inhibition data were plotted vs. compound concentrations, and IC50 values were determined from a 4-parameter robust fit model with the Prism software (GraphPad Software). Results were expressed as pIC50 (negative logarithm of IC50) and subsequently converted to pKi (negative logarithm of dissociation constant, Ki) using the Cheng-Prusoff equation.
On the technique in general: Time-resolved FRET reads energy transfer from a long-lived donor to a nearby acceptor.

Assay [1] concerns IL-2/anti-CD3 stimulated STAT5 phosphorylation in CD4+ T cells. Put plainly: Cellular JAK potency assay: inhibition of IL-2 stimulated pSTAT5 in CD4+ T cells. The format is cell-based. The settings on record: 0.5 h; CD4+ T cells in human PBMCs, 30 min stimulation; read-out: pIC50, inhibition of IL-2 stimulated pSTAT5 (converted). The method, then: Assay 9: Cellular JAK Potency Assay: Inhibition of IL-2 Stimulated pSTAT5 in CD4+ T Cells
The potency of the test compound for inhibition of interleukin-2 (IL-2)/anti-CD3 stimulated STAT5 phosphorylation was measured in CD4-positive (CD4+) T cells in human peripheral blood mononuclear cells (PBMCs) isolated from human whole blood (Stanford Blood Center) using flow cytometry. Because IL-2 signals through JAK, this assay provides a measure of JAK cellular potency. […]
(2) After cytokine stimulation, cells were fixed with pre warmed fix solution (200 μL; BD Biosciences) for 10 min at 37° C., 5% CO2, washed twice with DPBS buffer (1 mL, Life Technologies), and resuspended in ice cold Perm Buffer III (1000 μL, BD Biosciences) for 30 min at 4° C. […] After incubation, cells were washed twice in FACS buffer before being analyzed using a LSRII flow cytometer (BD Biosciences). To determine the inhibitory potency of test compounds in response to IL-2/anti-CD3, the median fluorescent intensity (MFI) of pSTAT5 was measured in CD4+ T cells. IC50 values were determined from analysis of the inhibition curves of MFI vs compound concentration. Data are expressed as pIC50 (negative decadic logarithm IC50) values.

Assay [2] relates to Alternaria alternata-induced eosinophilic inflammation of the lung (BALF eosinophils). Put plainly: Murine model of Alternaria alternata-induced eosinophilic inflammation of the lung. In kind it is in vivo. The settings on record: mouse, oropharyngeal aspiration 0.03-1.0 mg/mL, BALF 48 h after challenge; maximum statistically significant inhibition. An excerpt:
Assay 5: Murine Model of Alternaria alternata-Induced Eosinophilic Inflammation of the Lung
Airway eosinophilia is a hallmark of human asthma. Alternaria alternata is a fungal aeroallergen that can exacerbate asthma in humans and induces eosinophilic inflammation in the lungs of mice (Havaux et al. Clin Exp Immunol. 2005 February; 139(2):179-88).
Seven- to nine-week old male C57 mice from Taconic were used in the study. On the day of study, animals were lightly anesthetized with isoflurane and administered either vehicle or test compound (0.03-1.0 mg/mL, 50 μL total volume over several breaths) via oropharyngeal aspiration. Animals were placed in lateral recumbency post dose and monitored for full recovery from anesthesia before being returned to their home cage. One hour later, animals were once again briefly anesthetized and challenged with either vehicle or alternaria extract (200 ug total extract delivered, 50 μL total volume) via oropharyngeal aspiration before being monitored for recovery from anesthesia and returned to their home cage. Forty-eight hours after alternaria administration, bronchoalveolar lavage fluid (BALF) was collected and eosinophils were counted in the BALF using the Advia 120 Hematology System (Siemens). […]

SMILES strings stand for the structures.

JAK3, sequence (P52333 whole entry): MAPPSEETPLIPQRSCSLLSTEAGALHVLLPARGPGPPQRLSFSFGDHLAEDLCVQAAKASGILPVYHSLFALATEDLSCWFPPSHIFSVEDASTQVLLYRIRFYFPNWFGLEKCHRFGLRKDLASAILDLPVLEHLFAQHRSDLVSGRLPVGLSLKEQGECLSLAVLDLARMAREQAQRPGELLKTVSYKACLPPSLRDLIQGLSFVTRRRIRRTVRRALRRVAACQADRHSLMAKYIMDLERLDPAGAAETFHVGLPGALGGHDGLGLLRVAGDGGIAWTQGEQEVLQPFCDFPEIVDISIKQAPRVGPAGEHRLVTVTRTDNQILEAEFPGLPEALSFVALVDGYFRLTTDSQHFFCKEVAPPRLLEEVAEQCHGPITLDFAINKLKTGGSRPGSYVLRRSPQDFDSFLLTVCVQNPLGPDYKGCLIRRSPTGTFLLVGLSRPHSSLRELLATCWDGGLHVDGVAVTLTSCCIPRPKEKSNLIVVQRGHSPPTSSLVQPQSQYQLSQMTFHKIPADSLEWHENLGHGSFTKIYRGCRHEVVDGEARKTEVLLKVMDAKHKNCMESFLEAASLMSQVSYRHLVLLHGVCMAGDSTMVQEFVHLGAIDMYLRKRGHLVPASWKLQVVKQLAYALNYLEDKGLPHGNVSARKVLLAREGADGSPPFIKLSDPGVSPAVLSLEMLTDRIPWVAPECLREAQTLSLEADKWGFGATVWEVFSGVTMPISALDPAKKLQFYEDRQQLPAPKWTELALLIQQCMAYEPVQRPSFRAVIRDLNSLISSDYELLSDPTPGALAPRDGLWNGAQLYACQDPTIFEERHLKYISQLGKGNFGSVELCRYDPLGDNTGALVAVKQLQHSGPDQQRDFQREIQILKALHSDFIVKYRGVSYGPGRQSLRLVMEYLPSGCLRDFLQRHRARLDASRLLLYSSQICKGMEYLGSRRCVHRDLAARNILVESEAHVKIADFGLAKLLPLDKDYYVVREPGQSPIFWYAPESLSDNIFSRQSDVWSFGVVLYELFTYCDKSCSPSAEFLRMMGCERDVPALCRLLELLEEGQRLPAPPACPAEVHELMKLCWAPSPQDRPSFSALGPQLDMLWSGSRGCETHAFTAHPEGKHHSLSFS

Turning to `CCc1cc(O)c(F)cc1-c1ccc2c(-c3nc4c([nH]3)CN(C(C)C)[C@H](C(=O)N3CC(N(C)C)C3)C4)n[nH]c2c1` [Example 2, (S)-(3-(dimethylamino)azetidin-1-yl)(2-(6-(2-ethyl-5-fluoro-4-hydroxyphenyl)-1H-indazol-3-yl)-5-isopropyl-4,5,6,7-tetrahydro-3H-imidazo[4,5-c]pyridin-6-yl)methanone], at JAK3, the inhibition constant Ki (as a rule, the equilibrium dissociation constant of an inhibitor or competing ligand from its target) came out at 0.1 nM. The IC50 in assay [1] was roughly 50.1 nM. For the same compound, the “Percent Inhibition of Alternaria-induced BALF Eosinophils” value in assay [2] came to 74%.

Source of the values: US10196393B2, “JAK inhibitors containing a 4-membered heterocyclic amide” (THERAVANCE BIOPHARMA R&D IP, LLC, priority 2017, dated 2019).
